Reference: patent US20020164581A1 (priority 2001, published 2002)
Where two headings read alike, the source gives them in different places.

What was measured:
[1] = test system: antioxidant enzymes (SOD, CAT, GPX, GR) in bAECs; experiment: Antioxidant enzyme (AOE) activities in cell lysates, all four enzymes together; type: cell-based, bovine; settings: for AOE change, SERM alone: pretreatment with 1 μM alone
Description: […] The cells were then lysed on ice by sonication at a setting of 50 mW, with 3×15 set cycles using a Cole-Parmer Ultrasonic Homogenizer (Chicago, Ill.). Protein concentrations in the samples were determined by the Bradford method with bovine serum albumin as a standard (Bradford, Anal. Biochem. 72:248-254, 1976).
SOD activity was determined by a method based on the ability of SOD to suppress epinephrine auto-oxidation (Misra and Fridovich, J.Biol. Chem. 247:3170-3175, 1972). One unit of SOD activity is defined as the amount of protein that inhibits the oxidation of epinephrine by 50%. Briefly, 100 μl of 10×-diluted cell homogenate (about 10 μg protein) was added to 900 μl of carbonate buffer (0.1 M NaHCO3, 0.1 M Na2CO3, 0.1 mM EDTA, pH 10.2) containing 0.7 mM of epinephrine. The absorbency of the mixture was measured for 4 minutes at 480 nm using a Hitachi U-2000 spectrophotometer (Hitachi, San Jose, Calif.).
CAT activity was determined by the method of Aebi (Methods Enzymol. 105:121,-126, 1984). One unit of CAT activity is defined as the amount of protein that degrades 1 μmole of H2O2 per minute. Initially, 10 μl of absolute ethanol was mixed with 100 μl of cell homogenates and pre-incubated at 4° C. for 30 minutes. Following the addition of 10 μl Triton X-100 (reduced form), a 100 μl aliquot (about 100 μg of protein) of the resultant mixture was next added to 500 μl of hydrogen peroxide (66 mM) and 400 μl of phosphate buffer (0.1 M NaH2PO4, 0.1 M Na2HPO4, 0.1 mM EDTA, pH 7.0). The absorbency of the mixture was monitored for one minute at 240 nm spectrophotometrically. The molar extinction coefficient of 43.6 M/cm was used to determine the catalase activity.
GPX activity was determined by a modified method of Flohe and Gunzler (Methods Enzymol. 105:114-121, 1984). One unit of GPX activity is defined as the amount of protein that oxidizes 1 nmole of β-NADPH per minute. In this assay, 100 μl of cell homogenate (about 100 μg protein) was added to 800 μl of phosphate buffer (0.1 M NaH2PO4, 0.1 M Na2HPO4, 0.1 mM EDTA, pH 7.0) containing 12.5 mM glutathione (reduced form, GSH), 0.2 mM β-nicotinamide adenine dinucleotide phosphate (reduced form, β-NADPH), and 0.34 U glutathione reductase. This mixture was pre-incubated at 37 C for 10 minutes and then 100 μl of 12 mM t-butyl hydroperoxide was added. The absorbency of the mixture was determined at 340 nm for 3 minutes. The molar extinction coefficient of 6.22 mM/cm was used to determine the activity of GPX.
GR activity was determined by a modified method of Carlberg and Mannervik (Methods Enzymol. 11 3:484-490, 1985). One unit of GR activity is defined as the amount of protein that oxidizes 1 nmole of β-NADPH per minute. Briefly, 50 μl of 2 mM β-NADPH in 10 mM Tris buffer (pH 7.0) was added to a cuvette containing 50 μl of 20 mM glutathione (oxidized ofrm, GSSG) in phosphate buffer (0.1 M NaH2PO4, 0.1 M Na2HPO4, 0.1 mM EDTA, pH 7.0) and 800 μl of phosphate buffer. Following the addition of cell homogenate (about 100 μg protein/100 μl) the final mixture was measured at 340 nm for 3 minutes. The molar extinction coefficient of 6.22 mM/cm was used to determine the activity of […].

[2] = test system: bovine aortic endothelial cells (bAECs); settings: for protection against paraquat-mediated cytotoxicity, SERM alone: 10 nM-1 μM, 24 h pretreatment (FIG. 4)
Description: Primary cultures of bAECs were established from five female beef cattle (ranging in age from 1 to 2 years old) according to the method of Fenselau and Mello (Cancer Res. 36:3269-3273, 1976). Pooled cells were routinely maintained under humidified air (5% CO2) at 37° C. in Dulbecco's modified medium supplemented with 10% fetal bovine serum (FBS). Cells from the second to the fifth passages were used in these studies.
In the studies in which male and female bAECs were compared, batches of bAECs were independently established from 5 female and 4 male beef cattle (ranging in age from 1 to 2 years old) according to the method of Fenselau and Mello (Cancer Res. 36:3269-3273, 1976). Otherwise, the cells were treated and assessed as described in the paragraph above.
Prior to E2 pretreatment, cells were grown in phenol red-free DMEM supplemented with 10% dextran/charcoal-stripped FBS for at least 1 passage (3-4 days). Phenol red-free Dulbecco's modified medium was used to avoid potential estrogenic interference. Serum steroid deprivation was conducted according to the conditions described by Yeh et al. (Proc. Natl. Acad. Sci. USA 95:5527-5532, 1998). The E2 level in the stripped serum was assayed using an [^125I] 17β-estradiol radioimmunoassay kit (TKE21, Diagnostic Products Corporation, Los Angeles, Calif.). […] The cells grown in E2-free environments were plated onto Falcon 24-well Primariae™ plates at a density of 5×10^4 cells/well. E2 in dimethylsulfoxide (DMSO) was added to each well at final concentrations ranging from 1 nM to 10 μM 3 hours after plating, and the cells were then incubated for 24 hours (a duration commonly used for the studies of the genomic effects of E2) at 37° C. Control cells were treated with a corresponding amount of DMSO (a final concentration 0.05%).
Prior to oxidative challenge, E2-containing media was removed, and the cells were rinsed with PBS twice and re-fed with serum-free fresh medium. Subsequently, paraquat was added to the cells at the indicated doses (0.1-2.0 mM) for 3 hours. The oxidative challenge was terminated by aspiration of the oxidant-containing medium and quickly rinsing the cells twice with PBS. The cells were allowed to recover for 48 hours in medium supplemented with 10% regular FBS to exclude the possibility that different concentrations of E2 interfere with the cellular recovery processes.
Cell survival after oxidative challenge was assessed with a 3-(4,5-dimethylthiazol-2-yl) 2,5 diphenyltetrazolium bromide (MTT) assay in which the mitochondrial dehydrogenase activity of viable cells reduces MTT to a blue formazan product (Carmichael et al. Cancer Res. 47:936-942, 1987). Our prior conditions were employed (Si et al., Endocrine in press, 2001). Briefly, cells were treated with 1/10 volume of MTT solution (5 mg/ml in PBS) and incubated at 37° C. for 2 hours. The supernatant was then removed, and 600 μl of lysis buffer (50% dimethyl formamide, 5% sodium dodecyl sulphate, 0.35 M acetic acid, 50 mM HCl) was added to each well. Following cell lysis, the absorbency was measured at 570 nm and used as an indicator of relative cell survival. The surviving fraction was calculated as compared to the cells without paraquat challenge.
Two experimental groups were created. In the first group, E2 was added only during the 24-hour pretreatment period. In the second group, E2 was added only during the 3-hour paraquat exposure.

estrogen receptor = settings: cited from earlier work
[3] = test system: endothelial nitric oxide synthase; settings: endothelial cells; cited from earlier work
cardiomyocytes = settings: cited from earlier work
LDL = settings: 5-50 μM; oxidation by copper ions, monocytes, or endothelial cells; cited from earlier work

Molecule: C[C@@H]1C[C@@H]([C@H](O)CC2CC(=O)NC(=O)C2)C(=O)[C@@H](C)C1 [cyclohexamide]
- effect on AOE induction by E2 ([1]; included during the E2 pretreatment period): abolished

Molecule: COc1ccc2c(c1)CCC(c1ccccc1)=C2c1ccc(OCCN2CCCC2)cc1 [nafoxidine]
- protection against subsequent oxidative challenge [2]: neither positively nor negatively influenced oxidative resistance

Molecule: CC/C(=C(/CC)c1ccc(O)cc1)c1ccc(O)cc1 [diethylstilbestrol]
- protection against subsequent oxidative challenge [2]: acquired significant protection against subsequent oxidative challenge

Molecule: CCCCN(C)C(=O)CCCCCCCCCC[C@@H]1Cc2cc(O)ccc2[C@H]2CC[C@]3(C)[C@@H](O)CC[C@H]3[C@H]12 [ICI164384]
- effect on the beneficial effect of E2 (estrogen receptor): reverses the beneficial effect of E2

Molecule: O=C(c1ccc(OCCN2CCCCC2)cc1)c1c(-c2ccc(O)cc2)sc2cc(O)ccc12 [Ral, raloxifene]
- AOE change, SERM alone [1]: no detectable change in AOE
- protection against subsequent oxidative challenge [2]: neither positively nor negatively influenced oxidative resistance
- protection against paraquat-mediated cytotoxicity, SERM alone [2]: failed to confer detectable protection
- effect on E2-induced oxidative protection ([2]; 1 μM (highest tested dose) added with 1 nM E2 during pretreatment): only a slight inhibitory effect on E2 protection
- effect on E2-induced oxidative protection ([2]; 1-100 nM added with 1 nM E2 during pretreatment): did not affect E2-induced oxidative protection

Molecule: 4-hydroxytamoxifen [4-OH-Tam]
- effect on E2's capability to evoke AOE activities ([1]; 1 μM SERM included during 1 nM E2 pretreatment (FIG. 6)): significantly decreased estrogen's capability to evoke AOE activities
- AOE change, SERM alone [1]: no detectable change in AOE
- protection against subsequent oxidative challenge [2]: neither positively nor negatively influenced oxidative resistance
- effect on E2-induced oxidative protection ([2]; 10 nM-1 μM added simultaneously with 1 nM E2 during pretreatment): significantly blocked estrogen-induced oxidative protection
- protection against paraquat-mediated cytotoxicity, SERM alone [2]: failed to confer detectable protection
- minimal dose to suppress E2 protection ([2]; co-treatment with 1 nM E2, endothelial cells): 10 nM

Molecule: CC/C(=C(\c1ccccc1)c1ccc(OCCN(C)C)cc1)c1ccccc1 [tamoxifen]
- effect on E2's induction of nitric oxide synthase [3]: interferes with E2's ability to induce nitric oxide synthase
- effect on E2's protection in cardiomyocytes (cardiomyocytes): abolishes this protective effect

Molecule: C[C@]12CC[C@@H]3c4ccc(O)cc4CC[C@H]3[C@@H]1C[C@@H](O)[C@@H]2O [estriol]
- effect on LDL oxidation (LDL): inhibit LDL oxidation

Molecule: C[C@]12CC[C@H]3[C@@H](CCC4=CC(=O)CC[C@@]43C)[C@@H]1CC[C@@H]2O [testosterone]
- effect on LDL oxidation (LDL): has no effect

Molecule: C[n+]1ccc(-c2cc[n+](C)cc2)cc1.[Cl-].[Cl-] [paraquat, 1,1′-dimethyl-4,4′-bipyridinium dichloride]
- cell killing by paraquat ([2]; exposure of bAECs 3 h at 37 C): dose-dependent cell killing
- LD50 of paraquat ([2]; male and female bAECs (both genders)): 0.1 to 1.0 mM
- LD50 of paraquat toxicity ([2]; untreated control cells (no E2)): about 0.5 mM
